Results taken from ChEMBL document CHEMBL1137714, “Primaquine revisited six decades after its discovery” (Eur J Med Chem, 2009).

Legend:
Homo sapiens = organism: Homo sapiens; assay: Toxicity in human assessed as incidence of abdominal cramps at 22.5 to 30 mg/day; format: organism-based, Abdomen; details: in vivo
[1] = Tmax in po dosed human; format: ADME, organism-based; details: in vivo
[2] = biological target: Acetylcholinesterase (Homo sapiens) (UniProt P22303); assay: Inhibition of human erythrocyte AChE
Sequence of Acetylcholinesterase (Homo sapiens) (P22303 whole entry): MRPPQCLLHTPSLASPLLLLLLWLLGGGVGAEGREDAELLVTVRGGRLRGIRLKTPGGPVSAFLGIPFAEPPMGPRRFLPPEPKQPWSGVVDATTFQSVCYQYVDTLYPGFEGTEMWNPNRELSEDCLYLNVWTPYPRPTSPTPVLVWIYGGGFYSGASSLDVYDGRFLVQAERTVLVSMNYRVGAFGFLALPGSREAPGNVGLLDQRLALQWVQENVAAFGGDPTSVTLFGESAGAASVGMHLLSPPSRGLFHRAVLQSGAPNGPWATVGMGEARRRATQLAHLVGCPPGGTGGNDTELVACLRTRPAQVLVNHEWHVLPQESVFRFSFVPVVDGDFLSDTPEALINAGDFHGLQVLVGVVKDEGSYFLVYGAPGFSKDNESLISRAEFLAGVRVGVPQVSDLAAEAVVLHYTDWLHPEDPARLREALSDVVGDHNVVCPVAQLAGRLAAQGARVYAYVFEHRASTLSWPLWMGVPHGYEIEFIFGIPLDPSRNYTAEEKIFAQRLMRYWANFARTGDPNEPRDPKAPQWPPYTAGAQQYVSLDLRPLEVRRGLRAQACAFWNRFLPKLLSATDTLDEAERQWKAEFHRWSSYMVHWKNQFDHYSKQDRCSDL

## COc1cc(NC(C)CCCN)c2ncccc2c1 (stereo not drawn) [PRIMAQUINE]
Homo sapiens
  Activity: 10%
[1]
  Tmax: 12 h
[2]
  IC33: 30 µM
